Results published in patent publication US20070232527A1, “Medicaments and methods combining a HCV protease inhibitor and an AKR competitor” (priority 2005, published 2007).

Columns and labels:
[1] = test system: cytosolic enzymes that convert Formula Ia to Formula Ia′; assay: in vitro; conditions: human
Method: (§3) All incubations contained 3 mM magnesium chloride and NADPH-generating system in 0.5 mL of 50 mM potassium phosphate buffer, pH 7.4. Prior to the addition of drug, incubation mixtures were preincubated for 2 min at 37° C. […] The incubation mixtures were vortexed and centrifuged (˜10,000 g) at 4° C. for 10 min; supernatants were analyzed by HPLC coupled with radiometric detector. Heat activated S9 cofactor or mitochondria were used as control. For LC-MS analysis, supernatants were concentrated in SpeedVac for 3 hrs. Incubation volumes were 0.5 mL and the final concentration of the organic solvents in the incubation system was less than 1% (v/v).
(§4) The mobile phase consisted of 10 mM ammonium acetate adjusted to pH 7.0 with 1% ammonium hydroxide (A) and 100% methanol (B).

[2] = test system: cytosolic enzymes that convert Formula Ia to Formula Ia′; assay: Inhibition of metabolism of 14C-Formula Ia to Formula Ia′ in human liver cytosol; conditions: human; for inhibition at 120 min: pH 7.4
Method: as §3, §4

[3] = In vivo inhibition study of Formula Ia with AKR competitor diflunisal, plasma PK; conditions: cynomolgus monkeys plasma; as a function of diflunisal dose 0, 62.5, 125, 250 mg
Method: An in vivo study was conducted in cynomolgus monkeys where 200 mg Formula Ia and 0 (control), 62.5, 125, or 250 mg diflunisal (Dolobid) was administered as illustrated below. All six monkeys were first dosed with Formula Ia with blood samples collected over a 12 hr period for plasma pharmacokinetics (PK) of Formula Ia prior to administration of diflunisal (dose-escalation). Four doses of diflunisal were subsequently administered every 12 hr with Formula Ia administered at each 4th diflunisal dose after which blood samples were collected for PK assessment of Formula Ia. The following chart summarizes the timing of Formula Ia and diflunisal administration.

AKR1C3 = target: T1, AKR1C3 (Homo sapiens, UniProt P42330); assay: Incubation with S9 fraction of recombinant human AKR1C3; assay type: in vitro ADME; set-up: made in house; conditions: 20 μM 14C-radiolabeled compound; S9 2.5 mg protein/mL; NADPH
T1 sequence (P42330 1-323): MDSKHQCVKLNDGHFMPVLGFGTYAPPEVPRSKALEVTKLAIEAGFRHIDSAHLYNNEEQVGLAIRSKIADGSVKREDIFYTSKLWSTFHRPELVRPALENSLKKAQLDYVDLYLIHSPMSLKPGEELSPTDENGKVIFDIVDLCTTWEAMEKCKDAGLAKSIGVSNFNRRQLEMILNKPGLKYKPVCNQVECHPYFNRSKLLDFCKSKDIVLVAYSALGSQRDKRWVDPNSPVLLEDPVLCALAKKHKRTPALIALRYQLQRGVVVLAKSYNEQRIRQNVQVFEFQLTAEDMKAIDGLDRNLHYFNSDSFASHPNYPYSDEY
Method: (§1) Recombinant human AKRs (AKR1C2, AKR1C3 and AKR1C4) were grown, sonicated and centrifuged at ˜10,000 g to obtain S9 fractions. Incubations of ^14C-radiolabeled compound of Formula Ia, ^14C-radiolabeled compound of Formula Ib and ^14C-radiolabeled compound of Formula Ic (all at 20 μM) with S9-fractions from three recombinant human AKRs (2.5 mg protein/mL) were conducted as described above. [drawing 161]
(§2) The samples were analyzed by HPLC-coupled with radiometric detector and confirmed by LC-MS.

AKR1C2 = target: T2, AKR1C2 (Homo sapiens, UniProt P52895); assay: Incubation with S9 fraction of recombinant human AKR1C2; assay type: in vitro ADME; set-up: made in house; conditions: 20 μM 14C-radiolabeled compound; S9 2.5 mg protein/mL; NADPH
T2 sequence (P52895 1-323): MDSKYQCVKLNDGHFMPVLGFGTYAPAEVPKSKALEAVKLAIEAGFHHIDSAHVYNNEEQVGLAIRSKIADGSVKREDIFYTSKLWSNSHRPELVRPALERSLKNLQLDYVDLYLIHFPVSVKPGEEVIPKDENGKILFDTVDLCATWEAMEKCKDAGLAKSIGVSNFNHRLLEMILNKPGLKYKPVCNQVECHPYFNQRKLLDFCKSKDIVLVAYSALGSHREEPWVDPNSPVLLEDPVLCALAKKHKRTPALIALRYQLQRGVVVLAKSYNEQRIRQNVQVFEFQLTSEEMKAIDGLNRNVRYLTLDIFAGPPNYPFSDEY
Method: as §1, §2

[4] = test system: cytosolic enzymes that convert Formula Ia to Formula Ia′; assay: Inhibition of metabolism of 14C-Formula Ia to Formula Ia′ in human liver S9; assay type: in vitro ADME; conditions: human, pH 7.4
[5] = pH 7.4, % Inhibition on Metabolite Formation of Compound Formula Ia
[6] = pH 7.4, % of Inhibition on Metabolite Formation of Compound Formula Ia
[7] = pH 7.4, inhibited formation of the compound of Formula Ia′

## Oc1ncnc2[nH]ncc12 [Allopurinol]
Human liver cytosol
  inhibited formation of the compound of Formula Ia′: no inhibition
[1]; [5]
  inhibition at 2 h, 100 µM: 2%

## CC(C)=CCC/C(C)=C/COc1c2ccoc2cc2oc(=O)ccc12 [Bergamottin]
[1]; [6]
  inhibition at 2 h, 10 µM: 10%

## Cc1ccc(-c2cc(C(F)(F)F)nn2-c2ccc(S(N)(=O)=O)cc2)cc1 [Celecoxib]
[1]; [5]
  inhibition at 120 min, 2 μM: 8.42%
  inhibition at 120 min, 10 μM: 9.18%
  inhibition at 120 min, 50 μM: 20.5%
[1]; [6]
  inhibition at 2 h, 50 µM: 20.5%

## O=C(O)Cc1ccccc1Nc1c(Cl)cccc1Cl [Diclofenac]
[1]; [6]
  inhibition at 2 h, 7 µM: 57.3%

## CCc1cccc2c3c([nH]c12)C(CC)(CC(=O)O)OCC3 (stereo not shown) [Etodolac]
[1]; [6]
  inhibition at 2 h, 100 µM: 3.74%

## CC(C(=O)O)c1cccc(Oc2ccccc2)c1 (stereo not shown) [Fenoprofen]
[1]; [6]
  inhibition at 2 h, 80 µM: 14.2%

## O=C(O)c1ccccc1Nc1cccc(C(F)(F)F)c1 [Flufenamic acid, N-(3-trifluoromethylphenyl)anthranilic acid]
[1]; [5]
  inhibition at 2 h, 100 µM: 80.3%
[1]; [7]
  inhibition at 120 min: 80.3%

## CN1C(=O)CN=C(c2ccccc2F)c2cc([N+](=O)[O-])ccc21 [Flunitrazepam]
[2]
  inhibition at 120 min: 51%

## CC(C(=O)O)c1ccc(-c2ccccc2)c(F)c1 (stereo not shown) [Flurbirofen]
[1]; [6]
  inhibition at 2 h, 50 µM: 31.6%

## CC(C)(C)NC(=O)N[C@H](C(=O)N1C[C@H]2[C@@H]([C@H]1C(=O)N[C@H](CC1CCC1)C(=O)C(N)=O)C2(C)C)C(C)(C)C [Formula Ib]
[3]
  AUC ratio (Formula Ia′ to AUC for the compound): decline
AKR1C3
  metabolism by recombinant AKR1C3: preferentially metabolized

## CC(C)(C)NC(=O)N[C@H](C(=O)N1C[C@H]2[C@@H]([C@H]1C(=O)N[C@@H](CC1CCC1)C(=O)C(N)=O)C2(C)C)C(C)(C)C [Formula Ic, (1R,2S,5S)—N-[(1S)-3-amino-1-(cyclobutylmethyl)-2,3-dioxopropyl]-3-[(2S)-2-[[[(1,1-dimethylethyl)amino]carbonyl]amino]-3,3-dimethyl-1-oxobutyl]-6,6-dimethyl-3-azabicyclo[3.1.0]hexane-2-carboxamide]
[3]
  AUC ratio (Formula Ia′ to AUC for the compound): decline
AKR1C2
  metabolism by recombinant AKR1C2: preferentially metabolized

## Cc1ccc(C)c(OCCCC(C)(C)C(=O)O)c1 [Gemfibrozil, 5-(2,5-dimethylphenoxy)-2,2-dimethylpentanoic acid]
[1]; [5]
  inhibition at 120 min, 100 µM: 27.4%
  inhibition at 120 min, 100 μM: 27.4%

## CC(C)Cc1ccc(C(C)C(=O)O)cc1 (stereo not shown) [Ibuprofen]
[1]; [5]
  inhibition at 120 min, 50 µM: 21.9%
  inhibition at 120 min, 50 μM: 31.3%
  inhibition at 120 min, 100 µM: 31.4%
  inhibition at 120 min, 100 μM: 33.4%
  inhibition at 120 min, 200 µM: 40.7%
  inhibition at 120 min, 200 μM: 43.3%
  inhibition at 120 min, 500 µM: 56.6%
  inhibition at 120 min, 1000 µM: 70%
  inhibition at 120 min, 1000 μM: 70%
[1]; [6]
  inhibition at 2 h, 200 µM: 43.3%
[1]; pH 7.4, inhibited metabolism of 14C-radiolabeled compound of Formula Ia
  inhibition at 120 min: 70%

## COc1ccc2c(c1)c(CC(=O)O)c(C)n2C(=O)c1ccc(Cl)cc1 [Indomethacin]
[1]; [5]
  inhibition at 120 min, 100 µM: 19%
  inhibition at 120 min, 100 μM: 19%
[1]; [6]
  inhibition at 2 h, 100 µM: 19%

## O=C(c1ccccc1)c1ccc2n1CCC2C(=O)O (stereo not shown) [Ketorolac]
[1]; [6]
  inhibition at 2 h, 4 µM: 0%

## Cc1cccc(Nc2ccccc2C(=O)O)c1C [Mefenamic acid]
[1]; [6]
  inhibition at 2 h, 1 µM: 14.6%
  inhibition at 2 h, 10 µM: 51.1%

## CC1=CC(=O)c2ccccc2C1=O [Menadione]
[4]
  inhibition at 120 min, 100 µM: 18%
[1]; [5]
  inhibition at 2 h, 100 µM: 29.7%
[1]; [7]
  inhibition at 120 min, 100 µM: 30%

## Cc1ncc2n1-c1ccc(Cl)cc1C(c1ccccc1F)=NC2 [Midazolam]
[2]
  inhibition at 120 min: 37%

## COc1ccc2cc(CCC(C)=O)ccc2c1 [Nabumetone]
[1]; [6]
  inhibition at 2 h, 200 µM: 42.4%

## O=C1C[C@@H](c2ccc(O)cc2)Oc2cc(O)cc(O)c21 [Naringenin]
[2]; pooled human liver cytosol, pH 7.4, probe 14C-radiolabeled compound of Formula Ia (20 μM), % of Inhibition on Metabolite Formation of Compound Formula Ia, Table 5, human liver cytosol, 2 hr incubation, 500 μM
  inhibition at 2 h, 500 µM: 86.7%

## O=C(O)CCc1nc(-c2ccccc2)c(-c2ccccc2)o1 [Oxaprozin]
[1]; [6]
  inhibition at 2 h, 500 µM: 76.1%

## C#CCN(C)Cc1ccccc1 [Pargyline]
Human liver cytosol
  inhibited formation of the compound of Formula Ia′: no inhibition
[1]; [5]
  inhibition at 2 h, 1 µM: 0%

## O=C1OC(c2ccc(O)cc2)(c2ccc(O)cc2)c2ccccc21 [Phenolphthalein]
[1]; [5]
  inhibition at 120 min, 100 μM: 86.1%
[1]; [7]
  inhibition at 120 min: 86.1%

## O=c1c(O)c(-c2ccc(O)c(O)c2)oc2cc(O)cc(O)c12 [Quercetin]
[4]
  inhibition at 120 min, 100 µM: 9.3%
[1]; [5]
  inhibition at 2 h, 100 µM: 33.4%
[1]; [7]
  inhibition at 120 min, 100 µM: 33.4%

## NC(=O)c1ncn([C@@H]2O[C@H](CO)[C@@H](O)[C@H]2O)n1 [Ribavirin]
[1]; [5]
  inhibition at 120 min, 10 μM: 1.76%
  inhibition at 120 min, 30 μM: 0%

## CC1=C(CC(=O)O)c2cc(F)ccc2/C1=C\c1ccc([S+](C)[O-])cc1 (stereo not shown) [Sulindac]
[2]; pooled human liver cytosol, pH 7.4, probe 14C-radiolabeled compound of Formula Ia (20 μM), % of Inhibition on Metabolite Formation of Compound Formula Ia, Table 5, human liver cytosol, 2 hr incubation, 30 μM
  inhibition at 2 h, 30 µM: 19%

## Cc1ccc(C(=O)c2ccc(CC(=O)O)n2C)cc1 [Tolmetin]
[1]; [6]
  inhibition at 2 h, 125 µM: 2.14%
